Our source for the IC50 and Ki values is ChEMBL document CHEMBL1129838, “Synthesis and pharmacological evaluation of sulfone substituted HIV protease inhibitors” (Bioorg Med Chem Lett, 1997).

The subject of assay [1] is Human immunodeficiency virus 1. Briefly: Antiviral activity against HIV-1 IIIB in H9 (human leukemia) cells. The assay is classed as functional, organism-based.
Assay [2] addresses Human immunodeficiency virus type 1 protease (Human immunodeficiency virus 1, UniProt Q72874). Briefly: Inhibition of HIV-1 protease.
Setting [3] is: Human immunodeficiency virus 1, H9.

The structures appear in SMILES notation. “And” between values parts separate entries of the source, which are not always exact repeats. Identical values can stand only once.

Take `O=c1cc(C(CC2CC2)CC2CC2)oc(O)c1C(c1cccc(CS(=O)(=O)c2ccccn2)c1)C1CC1` (centres undefined): in assay [1] (setting [3]), it took 7.7 µM to reach half-maximal inhibition (IC50). This compound also came in with an inhibition constant (Ki) in assay [2] of 0.0023 µM.
For `Cn1ccnc1S(=O)(=O)Nc1cccc(C(c2c(O)cc(C(CC3CC3)CC3CC3)oc2=O)C2CC2)c1` (centres undefined), in assay [1] (h9), the IC50 was > 1 µM and < 3 µM. The same compound showed an inhibition constant Ki in assay [2] of 0.00073 µM.
Turning to `O=c1c2c(oc(O)c1C(c1cccc(CS(=O)(=O)c3ccccn3)c1)C1CC1)CCCCCC2` (centres undefined), in assay [1] (setting [3]), half-maximal inhibition (IC50) required 10 µM. Also, the Ki in assay [2] stood at 0.0019 µM.
Consider `O=c1cc(C(CC2CC2)CC2CC2)oc(O)c1C(c1cccc(NS(=O)(=O)c2ccccn2)c1)C1CC1` (centres undefined), for which, in assay [1] (h9), the IC50 was > 1 µM and < 3 µM. The Ki in assay [2] is 0.00066 µM.
In assay [1] (setting [3]), `O=c1c2c(oc(O)c1C(c1cccc(CS(=O)(=O)c3ccc(F)cc3)c1)C1CC1)CCCCCC2` (centres undefined) came in with a half-maximal inhibitory concentration (IC50) of 14.5 µM. In addition, the Ki in assay [2] is 0.0021 µM.
`N#Cc1ccc(S(=O)(=O)Cc2cccc(C(c3c(O)oc4c(c3=O)CCCCCC4)C3CC3)c2)cc1` (centres undefined) had a half-maximal inhibitory concentration (IC50) in assay [1] (setting [3]) of 20.5 µM. In assay [2], the inhibitory constant (Ki) stood at 0.0019 µM.
The matching figures for `O=C(O)c1ccc(S(=O)(=O)Cc2cccc(C(c3c(O)c4c(oc3=O)CCCCCC4)C3CC3)c2)cc1` (centres undefined): more than 30 µM and 0.007 µM.
Turning to `Cc1ccc(S(=O)(=O)Cc2cccc(C(c3c(O)c4c(oc3=O)CCCCCC4)C3CC3)c2)cc1` (centres undefined), the IC50 in assay [1] (setting [3]) was more than 30 µM. In addition, in assay [2], the Ki is 0.0041 µM.
In turn, `O=c1c2c(oc(O)c1C(c1cccc(CS(=O)(=O)c3ccccc3)c1)C1CC1)CCCCCC2` (centres undefined) gave an IC50 in assay [1] (setting [3]) of more than 30 µM. The inhibition constant (Ki) in assay [2] amounted to 0.006 µM.
For `O=c1cc(C(CC2CC2)CC2CC2)oc(O)c1C(c1cccc(CS(=O)(=O)c2ccc(F)cc2)c1)C1CC1` (centres undefined), in that order: 19.8 µM and 0.019 µM.
Take `Cn1ccnc1S(=O)(=O)Nc1cccc(C(c2c(O)c3c(oc2=O)CCCCCC3)C2CC2)c1` (centres undefined): the concentration for half-maximal inhibition (IC50) in assay [1] (setting [3]) is more than 3 µM. The compound further came in with a Ki in assay [2] of 0.0011 µM.
In assay [1] (setting [3]), `O=c1c2c(oc(O)c1C(c1cccc(NS(=O)(=O)c3ccccc3)c1)C1CC1)CCCCCC2` (centres undefined) returned a concentration for half-maximal inhibition (IC50) of 5 µM.
Consider `O=c1c2c(oc(O)c1C(c1cccc(NS(=O)(=O)c3ccccn3)c1)C1CC1)CCCCCC2` (centres undefined), for which the 50% inhibitory concentration (IC50) in assay [1] (setting [3]) was less than 1 µM. The compound further gave an inhibition constant Ki in assay [2] of 0.00086 µM.
In the case of `O=C(O)c1ccc(S(=O)(=O)Nc2cccc(C(c3c(O)c4c(oc3=O)CCCCCC4)C3CC3)c2)cc1` (centres undefined), the IC50 in assay [1] (setting [3]) was more than 10 µM.
In assay [1] (setting [3]), `N#Cc1ccc(S(=O)(=O)Nc2cccc(C(c3c(O)c4c(oc3=O)CCCCCC4)C3CC3)c2)cc1` (centres undefined) came in with an IC50 of 1.5 µM.
Still for that read-out and setting: with `O=c1c2c(oc(O)c1C(c1cccc(NS(=O)(=O)c3ccc(F)cc3)c1)C1CC1)CCCCCC2` (centres undefined) the figure was 2.1 µM.
In assay [1] (setting [3]), `Cc1ccc(S(=O)(=O)Nc2cccc(C(c3c(O)c4c(oc3=O)CCCCCC4)C3CC3)c2)cc1` (centres undefined) showed a concentration for half-maximal inhibition (IC50) of 3.6 µM.
In turn, `Cn1ccnc1S(=O)(=O)Cc1cccc(C(c2c(O)c3c(oc2=O)CCCCCC3)C2CC2)c1` (centres undefined) gave an IC50 in assay [1] (setting [3]) of 20.4 µM. Also, the inhibition constant Ki in assay [2] was 0.003 µM.
`Cn1ccnc1S(=O)(=O)Cc1cccc(C(c2c(O)cc(C(CC3CC3)CC3CC3)oc2=O)C2CC2)c1` (centres undefined): it took 12 µM to reach half-maximal inhibition in assay [1] (setting [3]) (IC50). The compound also showed an inhibition constant (Ki) in assay [2] of 0.0031 µM.
With `O=c1cc(C(CC2CC2)CC2CC2)oc(O)c1C(c1cccc(NS(=O)(=O)c2ccc(F)cc2)c1)C1CC1` (centres undefined), in assay [1] (setting [3]), the IC50 came to 2.2 µM. In other words, the single-digit micromolar range.

Broadly, the IC50 is the concentration that gives 50% inhibition. A higher IC50 goes with weaker potency in that assay. For orientation: Ki means a measure of affinity in units of concentration, obtained from inhibition or displacement. Low values mean a stronger hold on the target, high ones a looser hold on the target.
